# The source made the active and inactive calls. The calls are words filed in the database; no cut-off is given here.
# Columns and labels:
# [1] = Inhibition of SOAT2 in New Zealand white rabbit intestinal microsomes assessed as reduction in cholesteryl oleate formation incubated for 5 mins in presence of [14C]-oleoyl-CoA and BSA complex by TLC method; set-up: species or system Oryctolagus cuniculus, Intestine
# [2] = Drug metabolism in New Zealand white rabbit intestinal microsomes assessed as 2-((6-((2,6-Diisopropylphenyl)amino)-6-oxohexyl)thio)-benzo[d]oxazole-4-carboxylic acid formation after 30 mins; assay type: ADME, Oryctolagus cuniculus, Intestine, microsome; conditions: 0.5 h
# [3] = Inhibition of SOAT1 in arterial homogenates isolated from 1% cholesterol fed New Zealand white rabbit assessed as reduction in cholesteryl oleate formation incubated for 5 mins in presence of [14C]-oleoyl-CoA and BSA complex by TLC method; assay type: tissue-based, Oryctolagus cuniculus
# [4] = Drug metabolism in New Zealand white rabbit intestinal microsomes assessed as -((6-((2,6-Diisopropylphenyl)amino)-6-oxohexyl)thio)benzo-[d]oxazole-7-carboxylic acid formation after 30 mins; assay type: ADME, Oryctolagus cuniculus, Intestine, microsome; conditions: 0.5 h
# Oryctolagus cuniculus = organism: Oryctolagus cuniculus; assay: Selectivity ratio of IC50 for inhibition of SOAT2 in New Zealand white rabbit intestinal microsomes to IC50 for inhibition of SOAT1 in arterial homogenates isolated from 1% cholesterol fed New Zealand white rabbit
# [5] = target: T1, Sterol O-acyltransferase 1 (Mus musculus, UniProt Q61263); assay: Inhibition of ACAT1 in mouse J774 cells assessed as reduction in esterified cholesterol accumulation after 18 hrs in presence of 25-hydroxycholesterol; assay type: cell-based
# T1 sequence (Q61263 whole entry): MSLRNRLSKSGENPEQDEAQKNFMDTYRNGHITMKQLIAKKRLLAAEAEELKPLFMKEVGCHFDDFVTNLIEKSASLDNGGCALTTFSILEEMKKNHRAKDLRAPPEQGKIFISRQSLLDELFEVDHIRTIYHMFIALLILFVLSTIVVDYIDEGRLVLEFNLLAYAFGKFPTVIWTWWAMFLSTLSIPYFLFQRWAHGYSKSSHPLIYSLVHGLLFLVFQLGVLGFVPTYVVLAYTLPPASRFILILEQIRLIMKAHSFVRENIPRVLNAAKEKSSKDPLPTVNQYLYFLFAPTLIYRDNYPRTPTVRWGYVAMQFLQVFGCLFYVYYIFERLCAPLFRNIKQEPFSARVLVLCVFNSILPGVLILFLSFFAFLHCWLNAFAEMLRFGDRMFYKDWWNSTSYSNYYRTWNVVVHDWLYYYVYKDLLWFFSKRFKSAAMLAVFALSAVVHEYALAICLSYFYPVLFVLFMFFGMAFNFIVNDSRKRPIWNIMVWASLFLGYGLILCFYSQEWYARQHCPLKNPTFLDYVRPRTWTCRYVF
# [6] = Inhibition of rabbit intestinal ACAT2; set-up: species or system Oryctolagus cuniculus
# [7] = target: T1, Sterol O-acyltransferase 1; assay: Inhibition of ACAT1 in mouse IC21 cells in presence of BSA; assay type: cell-based
# [8] = target: T2, Sterol O-acyltransferase 1 (Homo sapiens, UniProt P35610); assay: Inhibition of ACAT1 in human monocytes-derived macrophages reduction in cholesteryl oleate formation preincubated for 2 hrs followed by [14C]-oleic acid/sodium oleate addition measured after 2 hrs in absence of albumin by TLC assay
# T2 sequence (P35610 whole entry): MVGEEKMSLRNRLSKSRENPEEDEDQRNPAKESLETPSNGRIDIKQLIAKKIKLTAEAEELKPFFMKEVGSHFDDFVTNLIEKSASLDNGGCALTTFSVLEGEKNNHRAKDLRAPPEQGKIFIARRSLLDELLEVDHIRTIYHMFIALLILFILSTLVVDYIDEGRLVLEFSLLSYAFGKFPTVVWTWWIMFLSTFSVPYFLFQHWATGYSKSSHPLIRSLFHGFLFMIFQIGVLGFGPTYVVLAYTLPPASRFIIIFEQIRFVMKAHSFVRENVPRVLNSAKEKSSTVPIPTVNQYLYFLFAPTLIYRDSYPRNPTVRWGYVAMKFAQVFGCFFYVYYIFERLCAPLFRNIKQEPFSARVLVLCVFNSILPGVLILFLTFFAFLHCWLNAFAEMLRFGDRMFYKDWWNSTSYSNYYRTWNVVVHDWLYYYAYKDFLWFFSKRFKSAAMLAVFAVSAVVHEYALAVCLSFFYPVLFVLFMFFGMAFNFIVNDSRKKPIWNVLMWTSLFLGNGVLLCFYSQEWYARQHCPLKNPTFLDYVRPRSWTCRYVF
# Hamster [9] = assay: Toxicity in Bio F1B hamster model of diet-induced atherosclerosis assessed as reduction in total plasma cholesterol at 3 mg/kg/day added to chow pellets relative to control; assay type: organism-based; set-up: scale not given: the % may be the effect or the level left; conditions: cricetinae, in vivo
# [10] = Tmax in non-fasted Sprague-Dawley rat at 30 mg/kg, po by LC-MS/MS analysis; assay type: ADME, organism-based; conditions: in vivo
# [11] = target: T1, Sterol O-acyltransferase 1; assay: Inhibition of ACAT1 in mouse IC21 cells in absence of BSA; assay type: cell-based
# [12] = target: T3, Sterol O-acyltransferase 1 (Rattus norvegicus, UniProt O70536); assay: Inhibition of ACAT1 in 0.2 mg/ml rat liver microsomes
# T3 sequence (O70536 whole entry): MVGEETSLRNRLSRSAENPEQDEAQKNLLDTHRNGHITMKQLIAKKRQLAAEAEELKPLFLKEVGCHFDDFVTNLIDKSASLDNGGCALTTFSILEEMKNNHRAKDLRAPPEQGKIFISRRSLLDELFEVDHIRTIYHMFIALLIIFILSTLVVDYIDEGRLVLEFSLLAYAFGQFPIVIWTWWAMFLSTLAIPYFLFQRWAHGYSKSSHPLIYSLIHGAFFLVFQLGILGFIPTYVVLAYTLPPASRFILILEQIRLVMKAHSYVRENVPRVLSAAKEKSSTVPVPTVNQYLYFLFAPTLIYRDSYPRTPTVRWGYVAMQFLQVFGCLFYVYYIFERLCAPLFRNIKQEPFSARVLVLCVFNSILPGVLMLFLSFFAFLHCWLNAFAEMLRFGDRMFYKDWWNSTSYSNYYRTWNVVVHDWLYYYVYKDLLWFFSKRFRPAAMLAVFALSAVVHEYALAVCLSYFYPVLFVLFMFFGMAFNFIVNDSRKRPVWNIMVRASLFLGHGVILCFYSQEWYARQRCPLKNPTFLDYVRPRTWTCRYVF
# [13] = AUC (0 to 8 hrs) in non-fasted Sprague-Dawley rat at 30 mg/kg, po by LC-MS/MS analysis; assay type: ADME, organism-based; set-up: dose 30 mg/kg, time < 8 hr, route oral; conditions: in vivo
# Hamster [14] = assay: Antiatherosclerotic activity in Bio F1B hamster model of diet-induced atherosclerosis assessed as reduction in lipid accumulation areas in aortic arch at 10 mg/kg/day added to chow pellets by oil red O staining based assay relative to control; assay type: functional; conditions: Cricetinae
# [15] = target: T2, Sterol O-acyltransferase 1; assay: Inhibition of ACAT1 in human monocytes-derived macrophages reduction in cholesteryl oleate formation preincubated for 2 hrs followed by [14C]-oleic acid/BSA/sodium oleate addition measured after 2 hrs by TLC assay
# [16] = target: T3, Sterol O-acyltransferase 1; assay: Inhibition of ACAT1 in 1 mg/ml rat liver microsomes
# [17] = Cmax in non-fasted Sprague-Dawley rat at 30 mg/kg, po by LC-MS/MS analysis; assay type: ADME, organism-based; set-up: dose 30 mg/kg, route oral; conditions: in vivo
# Hamster [18] = assay: Antiatherosclerotic activity in Bio F1B hamster model of diet-induced atherosclerosis assessed as reduction in lipid accumulation areas in aortic arch at 3 mg/kg/day added to chow pellets by oil red O staining based assay relative to control; assay type: functional; conditions: Cricetinae
# Hamster [19] = assay: Toxicity in Bio F1B hamster model of diet-induced atherosclerosis assessed as reduction in total plasma cholesterol at 10 mg/kg/day added to chow pellets relative to control; assay type: organism-based; set-up: scale not given: the % may be the effect or the level left; conditions: cricetinae, in vivo
# Hamster [20] = assay: Antiatherosclerotic activity in Bio F1B hamster model of diet-induced atherosclerosis assessed as reduction in lipid accumulation areas in aortic arch at 1 mg/kg/day added to chow pellets by oil red O staining based assay relative to control; assay type: functional; conditions: Cricetinae
# Hamster [21] = assay: Toxicity in Bio F1B hamster model of diet-induced atherosclerosis assessed as reduction in total plasma cholesterol at 1 mg/kg/day added to chow pellets relative to control; assay type: organism-based; set-up: scale not given: the % may be the effect or the level left; conditions: cricetinae, in vivo
# Hamster [22] = assay: Antiatherosclerotic activity in Bio F1B hamster model of diet-induced atherosclerosis assessed as reduction in lipid accumulation areas in aortic arch at 0.3 mg/kg/day added to chow pellets by oil red O staining based assay; assay type: functional, organism-based; conditions: Cricetinae
IC50 [1],IC50 [3],IC50 [5],SMILES,Ratio IC50 (Oryctolagus cuniculus),further results
810 nM,26 nM,900 nM,COC(=O)c1cccc2oc(SCCCCCC(=O)Nc3c(C(C)C)cccc3C(C)C)nc12,31.2,Drug metabolism [2]: Metabolite_Detected; Drug metabolism [4]: Metabolite_Detected
30 nM,190 nM,,CCCCCCCCCCC(C)(C)C(=O)Nc1c(OC)cc(OC)cc1OC [CL-976],,IC50 [6]: 73 nM
330 nM,32 nM,100 nM,COC(=O)c1cccc2nc(SCCCCCC(=O)Nc3c(C(C)C)cccc3C(C)C)oc12,10.3,
29 nM,19 nM,460 nM,CC(C)c1cccc(C(C)C)c1NC(=O)CCCCCCCCCSc1nc2ccccc2[nH]1,1.5,
160 nM,41 nM,4100 nM,CC(C)c1cccc(C(C)C)c1NC(=O)CCCCCSc1nc2ccncc2o1,3.9,
36 nM,24 nM,3000 nM,CC(C)c1cccc(C(C)C)c1NC(=O)CCCCCSc1nc2cccnc2o1,1.5,
13000 nM,31000 nM,590 nM,CC(C)c1cc(C(C)C)c(CC(=O)NS(=O)(=O)Oc2c(C(C)C)cccc2C(C)C)c(C(C)C)c1 [AVASIMIBE],0.4,IC50 [7]: 760 nM; IC50 [8]: 25 nM; Activity (Hamster [9]): 25%; Tmax [10]: 3.3 h; IC50 [11]: 60 nM; IC50 [12]: 700 nM; AUC(0-t) at 8 h [13]: 48100 ng·h/mL; inhibition in vivo at 10 mg/kg/day (Hamster [14]): 0%; IC50 [15]: 4.1 µM; IC50 [16]: 12 µM; Cmax [17]: 4580 ng/mL; inhibition in vivo at 3 mg/kg/day (Hamster [18]): 14%; Activity (Hamster [19]): 10%; inhibition in vivo at 1 mg/kg/day (Hamster [20]): 33%; Activity (Hamster [21]): 55%; inhibition (Hamster [22]): Active

# Source: ChEMBL document CHEMBL4229418, “Design, synthesis and pharmacology of aortic-selective acyl-CoA: Cholesterol O-acyltransferase (ACAT/SOAT) inhibitors” (Bioorg Med Chem, 2018)
